Test results taken from patent publication EP4603105A1, “PHARMACEUTICAL COMPOSITION CONTAINING CYCLIC COMPOUND HAVING SELECTIVE KRAS INHIBITORY EFFECT AGAINST HRAS AND NRAS” (CHUGAI SEIYAKU KABUSHIKI KAISHA, priority 2022, dated 2024).
*1 amine or outer side, *2 acyl side, *3 side chain or, on linkers, in order; H or OH if unused. Where a SMILES comes first, the peptide text is derived from it. Bridges are numbered along the chain shown (N, C = ends). [ ]: non-standard residue; d: D form. The star is where a group is joined. hPhe(3-Cl-4-CF3) = N[C@@H](CCc1ccc(C(F)(F)F)c(Cl)c1)C(=O)O; NPrPhe(4-CF3) = CCCN[C@@H](Cc1ccc(C(F)(F)F)cc1)C(=O)O; NEtPhe(4-Me) = CCN[C@@H](Cc1ccc(C)cc1)C(=O)O; NMeGly(cPent) = CN[C@H](C(=O)O)C1CCCC1; X9 = CC1(C)CN([*:1])[C@@H]1C(=O)[*:2]; Hyp = O=C(O)[C@@H]1C[C@@H](O)CN1; NMeD = CN[C@@H](CC(=O)O)C(=O)O; NMeL = CN[C@@H](CC(C)C)C(=O)O; Morpholide = C1CN(*)CCO1; NMeA = CN[C@@H](C)C(=O)O; Ac5c = NC1(C(=O)O)CCCC1; Aze = O=C(O)[C@@H]1CCN1; X4 = C1CCC(*)OC1; Sar = CNCC(=O)O

Experiments:
[1] = molecular target: GDP-bound NRAS wild-type protein (Homo sapiens, UniProt P01111); test: Binding to NRAS by surface plasmon resonance (SPR), KD and KD ratio to KRAS
Sequence of GDP-bound NRAS wild-type protein (P01111 whole entry): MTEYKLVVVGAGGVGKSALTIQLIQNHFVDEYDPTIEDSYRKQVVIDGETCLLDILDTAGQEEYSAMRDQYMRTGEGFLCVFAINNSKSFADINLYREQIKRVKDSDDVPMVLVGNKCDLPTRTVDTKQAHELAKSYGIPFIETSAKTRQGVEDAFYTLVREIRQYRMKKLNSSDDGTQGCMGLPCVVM
Procedure, shortened: (§1)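 Recombinant RAS proteins bearing a biotinylated Avi tag and loaded with GDP served as the captured ligand, recaptured fresh every cycle. Binding responses were referenced to an uncoated surface and a buffer-only blank cycle. Dissociation constants were obtained by 1:1 model fitting at 30°C.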

[2] = molecular target: GDP-bound KRAS wild-type protein (Homo sapiens, UniProt P01116); test: Binding to KRAS by surface plasmon resonance (SPR), dissociation constant KD
Sequence of GDP-bound KRAS wild-type protein (P01116 1-188 isoform P01116-2): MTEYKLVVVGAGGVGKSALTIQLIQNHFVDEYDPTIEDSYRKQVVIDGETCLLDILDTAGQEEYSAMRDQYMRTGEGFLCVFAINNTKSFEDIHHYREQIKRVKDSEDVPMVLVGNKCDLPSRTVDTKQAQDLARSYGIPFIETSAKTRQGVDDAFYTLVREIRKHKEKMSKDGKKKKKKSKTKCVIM
Procedure, shortened: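 Running buffer contained 10 µM GDP and 10 mM MgCl2 to keep RAS in the GDP state, with 4% DMSO at pH 7.4. Compounds were flowed at 100 µL/min in 75 s steps of rising concentration over captured biotin-Avi RAS at 30°C. Sensorgrams were fitted 1:1 for KD.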

[3] = tested on: human lung cancer strain NCI-H441; format: cell-based
Procedure, shortened: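 Signal came from […] measured per well once the reagent was added. Beforehand, cells were cultured at 37°C and 5% carbon dioxide on a compound series serially diluted in dimethyl sulfoxide.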

[4] = molecular target: HRAS wild-type protein (Homo sapiens, UniProt P01112); test: Binding to HRAS by surface plasmon resonance (SPR), KD and KD ratio to KRAS
Sequence of HRAS wild-type protein (P01112 whole entry): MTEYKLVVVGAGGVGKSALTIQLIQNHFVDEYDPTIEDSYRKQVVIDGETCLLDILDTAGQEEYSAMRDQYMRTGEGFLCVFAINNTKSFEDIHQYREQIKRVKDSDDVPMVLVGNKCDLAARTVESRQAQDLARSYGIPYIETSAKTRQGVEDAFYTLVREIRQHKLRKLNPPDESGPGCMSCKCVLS
Procedure, shortened: as §1

[5] = ratio of KD for GDP-bound NRAS wild-type protein to KD for KRAS
[6] = ratio of KD for HRAS wild-type protein to KD for KRAS
[7] = ratio of the KD value with respect to GDP-bound NRAS wild-type protein to the KD value with respect to KRAS
[8] = Single Cycle Kinetics, 1:1 binding model
[9] = ratio of the KD value with respect to HRAS wild-type protein to the KD value with respect to KRAS

CC[C@H](C)[C@@H]1NC(=O)[C@H](CC(C)C)N(C)C(=O)C[C@@H](C(=O)N2CCOCC2)N(C)C(=O)[C@H](C2CCCC2)N(C)C(=O)C2(CCCC2)NC(=O)[C@@H]2C[C@@H](OC3CCCCO3)CN2C(=O)[C@H](CCc2ccc(C(F)(F)F)c(Cl)c2)NC(=O)CN(C)C(=O)[C@H](Cc2ccc(C)cc2)N(CC)C(=O)CN(C)C(=O)CN(C)C1=O (stereo partly shown) [PP0068] ([NMeL]I[Sar][Sar][NEtPhe(4-Me)][Sar][hPhe(3-Cl-4-CF3)][Hyp](X4)[Ac5c][NMeGly(cPent)][NMeD]-Morpholide; lactam N-11)
NRAS /KRAS [1, 5]: C (A compound having a KD ratio of 0.1 or more and less than 3 is denoted as C)
Kd ([2]; 1:1 binding model): 0.14 nM
IC50 [3]: 9.1 nM
HRAS /KRAS [4, 6]: C (A compound having a KD ratio of 0.1 or more and less than 3 is denoted as C)

CC[C@H](C)[C@@H]1NC(=O)[C@@H]2CCCc3ccc(cc3)C[C@@H](C(=O)N(C)CC(=O)N[C@@H](CCc3ccc(C(F)(F)F)c(OC)c3)C(=O)N3C[C@H](OC(C)C)C[C@H]3C(=O)NC3(CC(C)(C)C3)C(=O)N(C)[C@@H](C3CCCC3)C(=O)N(C)[C@H](C(=O)N(C)CC)CC(=O)N2C)N2CC/C=C\C[C@@H](C2=O)N(C)C(=O)CN(C)C1=O [PP3084]
NRAS /KRAS [1, 5]: A (a compound having 10 or more and less than 20 is denoted as A)
Kd ([2]; 1:1 binding model): 0.12 nM
IC50 [3]: 3.7 nM
HRAS /KRAS [4, 6]: B (a compound having 3 or more and less than 10 is denoted as B)

CCC[C@H]1C(=O)N[C@@H]([C@@H](C)CC)C(=O)N(C)CC(=O)N(C)[C@H]2C/C=C\CCN(C2=O)[C@@H](Cc2ccc(C)cc2)C(=O)N(C)CC(=O)N[C@@H](CCc2cc(F)c(C(F)(F)F)c(F)c2)C(=O)N2C[C@H](OCC)C[C@H]2C(=O)NC2(CC(C)(C)C2)C(=O)N(C)[C@@H](C(CC)CC)C(=O)N(C)[C@H](C(=O)N(C)C)CC(=O)N1C [PP2064]
NRAS /KRAS [1, 7]: A (a compound having 10 or more and less than 20 is denoted as A)
Kd [2, 8]: 0.26 nM
IC50 [3]: 13.6 nM
HRAS /KRAS [4, 9]: A (a compound having 10 or more and less than 20 is denoted as A)

CCCOC[C@H]1C(=O)N[C@@H]([C@@H](C)CC)C(=O)N(C)CC(=O)N(C)[C@H]2C/C=C\CCN(C2=O)[C@@H](Cc2ccc(C(F)(F)F)cc2)C(=O)N(C)CC(=O)N[C@@H](CCc2ccc(C(F)(F)F)c(OC)c2)C(=O)N2C[C@@H](C)C[C@H]2C(=O)NC2(CCC2)C(=O)N(C)[C@@H](C2CCCC2)C(=O)N(C)[C@H](C(=O)N(C)CCC)CC(=O)N1C [PP2028]
NRAS /KRAS [1, 7]: A (a compound having 10 or more and less than 20 is denoted as A)
Kd [2, 8]: 0.11 nM
IC50 [3]: 17.5 nM
HRAS /KRAS [4, 9]: B (a compound having 3 or more and less than 10 is denoted as B)

CCCN1C(=O)[C@@H]2CCN2C(=O)[C@H]2N(CC2(C)C)C(=O)[C@H]([C@@H](C)CC)NC(=O)[C@H](CC(C)C)N(C)C(=O)C[C@@H](C(=O)N2CCOCC2)N(C)C(=O)[C@H](C2CCCC2)N(C)C(=O)C2(CCCC2)NC(=O)[C@@H]2CCCN2C(=O)[C@H](CCc2ccc(C(F)(F)F)c(Cl)c2)NC(=O)CN(C)C(=O)[C@@H]1Cc1ccc(C(F)(F)F)cc1 [PP0277] ([NMeL]I[X9][Aze][NPrPhe(4-CF3)][Sar][hPhe(3-Cl-4-CF3)]P[Ac5c][NMeGly(cPent)][NMeD]-Morpholide; lactam N-11)
NRAS /KRAS [1, 5]: C (A compound having a KD ratio of 0.1 or more and less than 3 is denoted as C)
Kd ([2]; 1:1 binding model): 0.53 nM
IC50 [3]: 6.7 nM
HRAS /KRAS [4, 6]: C (A compound having a KD ratio of 0.1 or more and less than 3 is denoted as C)

CCC(CC)[C@H]1C(=O)N(C)[C@H](C(=O)N(C)C)CC(=O)N(C)[C@@H](COC)C(=O)N[C@@H]([C@@H](C)CC)C(=O)N(C)CC(=O)N(C)[C@H]2C/C=C\CCN(C2=O)[C@@H](Cc2ccc(C)cc2)C(=O)N(C)CC(=O)N[C@@H](CCc2ccc(C(F)(F)F)c(OC)c2)C(=O)N2CCCC[C@H]2C(=O)NC2(CC(C)(C)C2)C(=O)N1C [PP2937]
NRAS /KRAS [1, 5]: A (a compound having 10 or more and less than 20 is denoted as A)
Kd ([2]; 1:1 binding model): 1.1 nM
IC50 [3]: 137 nM
HRAS /KRAS [4, 6]: A (a compound having 10 or more and less than 20 is denoted as A)

CC[C@H](C)[C@@H]1NC(=O)[C@H](CC2CC2)N(C)C(=O)C[C@@H](C(=O)N(C)C)N(C)C(=O)[C@H](C2CCCC2)N(C)C(=O)C2(CCC2)N(C)C(=O)[C@@H]2C[C@@H](C)CN2C(=O)[C@H](CCc2cc(F)c(C(F)(F)F)c(F)c2)NC(=O)CN(C)C(=O)[C@H](Cc2ccc(C)cc2)N2CC/C=C\C[C@@H](C2=O)N(C)C(=O)CN(C)C1=O [PP1800]
NRAS /KRAS ([1]; ratio of KD value for GDP-bound NRAS wild-type protein to KD value for KRAS (SPR)): A (a compound having 10 or more and less than 20 is denoted as A)
Kd [2, 8]: 0.051 nM
IC50 [3]: 6.5 nM
HRAS /KRAS ([4]; ratio of KD value for HRAS wild-type protein to KD value for KRAS (SPR)): A (a compound having 10 or more and less than 20 is denoted as A)

CCC[C@H]1C(=O)N[C@@H]([C@@H](C)CC)C(=O)N(C)CC(=O)N(C)[C@H]2C/C=C\CCN(C2=O)[C@@H](Cc2ccc(C)cc2)C(=O)N(C)CC(=O)N[C@@H](CCc2cc(Cl)c3sccc3c2)C(=O)N2C[C@H](OCC)C[C@H]2C(=O)NC2(CC(C)(C)C2)C(=O)N(C)[C@@H](C2CCCC2)C(=O)N(C)[C@H](C(=O)N(C)C)CC(=O)N1C [PP2947]
NRAS /KRAS [1, 5]: B (a compound having 3 or more and less than 10 is denoted as B)
Kd ([2]; 1:1 binding model): 0.12 nM
IC50 [3]: 3.5 nM
HRAS /KRAS [4, 6]: B (a compound having 3 or more and less than 10 is denoted as B)

CCO[C@@H]1C[C@H]2C(=O)NC3(CC(C)(C)C3)C(=O)N(C)[C@@H](C3CCCC3)C(=O)N(C)[C@H](C(=O)N(C)C)CC(=O)N(C)[C@@H]([C@@H](C)OC)C(=O)N[C@@H]([C@@H](C)CC)C(=O)N(C3CC3)CC(=O)N(C)[C@H]3C/C=C\CCN(C3=O)[C@@H](Cc3ccc(C)cc3)C(=O)N(C)CC(=O)N[C@@H](CCc3ccc(C(F)(F)F)c(OC)c3)C(=O)N2C1 [PP3210]
NRAS /KRAS [1, 5]: A (a compound having 10 or more and less than 20 is denoted as A)
Kd ([2]; 1:1 binding model): 0.53 nM
IC50 [3]: 19.1 nM
HRAS /KRAS [4, 6]: B (a compound having 3 or more and less than 10 is denoted as B)

CCC(CC)[C@H]1C(=O)N(C)[C@H](C(=O)N(C)C)CC(=O)N(C)[C@@H](COC)C(=O)N[C@@H]([C@@H](C)CC)C(=O)N(C)CC(=O)N(C)[C@H]2C/C=C\CCN(C2=O)[C@@H](Cc2ccc(C)cc2)C(=O)N(C)CC(=O)N[C@@H](CCc2ccc(Cl)c(Cl)c2)C(=O)N2C[C@H](OC3CCC3)C[C@H]2C(=O)N(C)C2(CC(C)(C)C2)C(=O)N1C [PP2816]
NRAS /KRAS [1, 5]: AA (a compound having 20 or more is denoted as AA)
Kd ([2]; 1:1 binding model): 0.39 nM
IC50 [3]: 22.8 nM
HRAS /KRAS [4, 6]: A (a compound having 10 or more and less than 20 is denoted as A)

CCO[C@@H]1C[C@H]2C(=O)NC3(CCC3)C(=O)N(C)[C@@H](C3CCCC3)C(=O)N(C)[C@H](C(=O)N3CCOCC3)CC(=O)N(C)[C@@H](CC(C)C)C(=O)N[C@@H]([C@@H](C)CC)C(=O)N(C)CC(=O)N(C)[C@H]3CC=C(C)CN(C3=O)[C@@H](Cc3ccc(C(F)(F)F)cc3)C(=O)N(C)CC(=O)N[C@@H](CCc3cc(F)c(C(F)(F)F)c(F)c3)C(=O)N2C1 [PP0826]
NRAS /KRAS [1, 5]: C (A compound having a KD ratio of 0.1 or more and less than 3 is denoted as C)
Kd ([2]; Single Cycle Kinetics): 0.13 nM
IC50 [3]: 11.5 nM
HRAS /KRAS [4, 6]: B (a compound having 3 or more and less than 10 is denoted as B)

CCO[C@@H]1C[C@H]2C(=O)NC3(CC(C)(C)C3)C(=O)N(C)[C@@H](C3CCCC3)C(=O)N(C)[C@H](C(=O)N(C)C)CC(=O)N(C)[C@@H]([C@H](C)OC)C(=O)N[C@@H]([C@@H](C)CC)C(=O)N3CCC[C@H]3C(=O)N(C)[C@H]3C/C=C\CCN(C3=O)[C@@H](Cc3ccc(C(F)(F)F)cc3)C(=O)N(C)CC(=O)N[C@@H](CCc3cc(F)c(C(F)(F)F)c(F)c3)C(=O)N2C1 [PP3181]
NRAS /KRAS [1, 5]: A (a compound having 10 or more and less than 20 is denoted as A)
Kd ([2]; 1:1 binding model): 0.96 nM
IC50 [3]: 51 nM
HRAS /KRAS [4, 6]: B (a compound having 3 or more and less than 10 is denoted as B)

CC[C@H](C)[C@@H]1NC(=O)[C@H](CC(C)C)N(C)C(=O)C[C@@H](C(=O)N2CCOCC2)N(C)C(=O)[C@H](C2CCCC2)N(C)C(=O)C2(CCCC2)NC(=O)[C@@H]2C[C@@H](OC3CCCCO3)CN2C(=O)[C@H](CCc2ccc(C(F)(F)F)c(Cl)c2)NC(=O)CN(C)C(=O)[C@H](Cc2ccc(C)cc2)N(CC)C(=O)[C@@H]2CCN2C(=O)[C@H](C)N(C)C1=O (stereo partly shown) [PP0067] ([NMeL]I[NMeA][Aze][NEtPhe(4-Me)][Sar][hPhe(3-Cl-4-CF3)][Hyp](X4)[Ac5c][NMeGly(cPent)][NMeD]-Morpholide; lactam N-11)
NRAS /KRAS [1, 5]: C (A compound having a KD ratio of 0.1 or more and less than 3 is denoted as C)
Kd ([2]; 1:1 binding model): 0.072 nM
IC50 [3]: 2.7 nM
HRAS /KRAS [4, 6]: C (A compound having a KD ratio of 0.1 or more and less than 3 is denoted as C)
